Data published in the NIST ThermoML archive (doi:10.1021/je900596d).

Details: for mass density: Vibrating tube method; for vapor or sublimation pressure: Closed cell (Static) method

FC(F)=C(F)C(F)(F)F [hexafluoropropene]
Details | mass density [kg/m3]
303.36 K, 1884.5 kPa, Liquid | 1299.72
303.36 K, 1906.2 kPa, Liquid | 1300.05
303.36 K, 1950 kPa, Liquid | 1300.59
303.36 K, 1985.6 kPa, Liquid | 1301.03
303.36 K, 2016.6 kPa, Liquid | 1301.15
303.36 K, 2051.2 kPa, Liquid | 1301.63
303.36 K, 2084.4 kPa, Liquid | 1301.95
303.36 K, 2119.1 kPa, Liquid | 1302.35
303.36 K, 2170.3 kPa, Liquid | 1302.96
303.36 K, 2204.1 kPa, Liquid | 1303.24
303.36 K, 2239.2 kPa, Liquid | 1303.63
303.36 K, 2326 kPa, Liquid | 1304.46
303.36 K, 2359.9 kPa, Liquid | 1304.86
303.36 K, 2392.6 kPa, Liquid | 1305.27
303.36 K, 2427 kPa, Liquid | 1305.54
303.36 K, 2445.1 kPa, Liquid | 1305.96
303.36 K, 2496.7 kPa, Liquid | 1306.19
303.36 K, 2513.8 kPa, Liquid | 1306.54
303.36 K, 2546.9 kPa, Liquid | 1306.82
303.36 K, 2585.2 kPa, Liquid | 1307.14
303.36 K, 2621.3 kPa, Liquid | 1307.6
303.36 K, 2688.6 kPa, Liquid | 1308.11
303.36 K, 2773.2 kPa, Liquid | 1309.07
303.36 K, 2808 kPa, Liquid | 1309.41
303.36 K, 2842.3 kPa, Liquid | 1309.71
303.36 K, 2874.3 kPa, Liquid | 1310.03
303.36 K, 2907.2 kPa, Liquid | 1310.3
303.36 K, 2940.3 kPa, Liquid | 1310.77
303.36 K, 3022.9 kPa, Liquid | 1311.53
303.36 K, 3048.7 kPa, Liquid | 1311.84
303.36 K, 3100.9 kPa, Liquid | 1312.32
303.36 K, 3125.6 kPa, Liquid | 1312.63
303.36 K, 3150.3 kPa, Liquid | 1312.98
303.36 K, 3176.4 kPa, Liquid | 1313.02
303.36 K, 3201.4 kPa, Liquid | 1313.32
303.36 K, 3226.8 kPa, Liquid | 1313.58
303.36 K, 3276.7 kPa, Liquid | 1313.98
303.36 K, 3325.1 kPa, Liquid | 1314.49
303.36 K, 3349.9 kPa, Liquid | 1314.75
303.36 K, 3375.9 kPa, Liquid | 1314.91
303.36 K, 3401.4 kPa, Liquid | 1315.17
303.36 K, 3428.7 kPa, Liquid | 1315.55
303.36 K, 3457.9 kPa, Liquid | 1315.79
303.36 K, 3482.4 kPa, Liquid | 1315.97
303.36 K, 3532.9 kPa, Liquid | 1316.48
303.36 K, 3636.8 kPa, Liquid | 1317.48
303.36 K, 3692 kPa, Liquid | 1318.07
303.36 K, 3744.5 kPa, Liquid | 1318.56
303.36 K, 3799.6 kPa, Liquid | 1319.05
303.36 K, 3852.6 kPa, Liquid | 1319.41
303.36 K, 3906.9 kPa, Liquid | 1319.99
303.36 K, 3959.3 kPa, Liquid | 1320.51
303.36 K, 4068.1 kPa, Liquid | 1321.53
303.36 K, 4117.4 kPa, Liquid | 1322.06
303.36 K, 4226.8 kPa, Liquid | 1323.01
303.36 K, 4279 kPa, Liquid | 1323.53
303.36 K, 4384.9 kPa, Liquid | 1324.43
303.36 K, 4442 kPa, Liquid | 1324.86
303.36 K, 4491.1 kPa, Liquid | 1325.26
303.36 K, 4545.1 kPa, Liquid | 1325.86
303.36 K, 4652.9 kPa, Liquid | 1326.85
303.36 K, 4706.2 kPa, Liquid | 1327.25
303.36 K, 4761.9 kPa, Liquid | 1327.67
303.36 K, 4810.6 kPa, Liquid | 1328.19
303.36 K, 4861.8 kPa, Liquid | 1328.62
303.36 K, 4913.7 kPa, Liquid | 1329.12
303.36 K, 4970 kPa, Liquid | 1329.46
303.36 K, 5017 kPa, Liquid | 1329.84
303.36 K, 5088.1 kPa, Liquid | 1330.55
303.36 K, 5216.5 kPa, Liquid | 1331.6
303.36 K, 5343.2 kPa, Liquid | 1332.68
303.36 K, 5408.2 kPa, Liquid | 1333.2
303.36 K, 5478.7 kPa, Liquid | 1333.8
303.36 K, 5540.7 kPa, Liquid | 1334.24
303.36 K, 5605.9 kPa, Liquid | 1334.94
303.36 K, 5666.1 kPa, Liquid | 1335.34
303.36 K, 5731.3 kPa, Liquid | 1335.77
303.36 K, 5921.6 kPa, Liquid | 1337.37
303.36 K, 5981.8 kPa, Liquid | 1337.85
303.36 K, 6042.7 kPa, Liquid | 1338.34
303.36 K, 6104.9 kPa, Liquid | 1338.9
303.36 K, 6169.9 kPa, Liquid | 1339.47
303.36 K, 6232.2 kPa, Liquid | 1339.84
303.36 K, 6297.1 kPa, Liquid | 1340.49
303.36 K, 6362 kPa, Liquid | 1340.92
303.36 K, 6487 kPa, Liquid | 1341.93
303.36 K, 6549.6 kPa, Liquid | 1342.5
303.36 K, 6613.9 kPa, Liquid | 1342.92
303.36 K, 6678.1 kPa, Liquid | 1343.42
303.36 K, 6742 kPa, Liquid | 1343.99
303.36 K, 6802.7 kPa, Liquid | 1344.44
303.36 K, 6864.7 kPa, Liquid | 1344.88
303.36 K, 6928 kPa, Liquid | 1345.36
303.36 K, 7053.8 kPa, Liquid | 1346.25
303.36 K, 7120.4 kPa, Liquid | 1346.76
303.36 K, 7184.3 kPa, Liquid | 1347.25
303.36 K, 7245.2 kPa, Liquid | 1347.73
303.36 K, 7308.5 kPa, Liquid | 1348.26
303.36 K, 7370.8 kPa, Liquid | 1348.64
303.36 K, 7436.1 kPa, Liquid | 1349.17
303.36 K, 7499.7 kPa, Liquid | 1349.66
303.36 K, 7563.6 kPa, Liquid | 1350.15
303.36 K, 7689.6 kPa, Liquid | 1351.05
303.36 K, 7751.3 kPa, Liquid | 1351.45
303.36 K, 7812.7 kPa, Liquid | 1351.9
303.36 K, 7879.7 kPa, Liquid | 1352.39
303.36 K, 7943 kPa, Liquid | 1352.95
303.36 K, 8005.8 kPa, Liquid | 1353.4
303.36 K, 8100.6 kPa, Liquid | 1353.99
303.36 K, 8290.6 kPa, Liquid | 1355.42
303.36 K, 8481.2 kPa, Liquid | 1356.76
303.36 K, 8578.2 kPa, Liquid | 1357.54
303.36 K, 8675.5 kPa, Liquid | 1358.15
303.36 K, 8768.5 kPa, Liquid | 1358.79
303.36 K, 8868.4 kPa, Liquid | 1359.47
303.36 K, 8967.8 kPa, Liquid | 1360.24
303.36 K, 9068.6 kPa, Liquid | 1360.85
303.36 K, 9168.1 kPa, Liquid | 1361.57
303.36 K, 9265.9 kPa, Liquid | 1362.22
303.36 K, 9367 kPa, Liquid | 1362.91
303.36 K, 9568.1 kPa, Liquid | 1364.22
303.36 K, 9667.3 kPa, Liquid | 1364.9
303.36 K, 9768.6 kPa, Liquid | 1365.55
303.36 K, 9865.8 kPa, Liquid | 1366.04
303.36 K, 9961.4 kPa, Liquid | 1366.81
303.36 K, 9992.6 kPa, Liquid | 1366.98
323.21 K, 7 kPa, Fluid (supercritical or subcritical phases) | 0.29
323.21 K, 10.8 kPa, Fluid (supercritical or subcritical phases) | 0.58
323.21 K, 14.3 kPa, Fluid (supercritical or subcritical phases) | 0.86

Liquid
Details | vapor or sublimation pressure [kPa]
308.21 K | 963.4
313.21 K | 1099.9
318.22 K | 1250.6
323.2 K | 1413.5
